# Reference: US7816321B2, “Thymosin β4 derivatives and use thereof” (Beijing Northland Biotech. Co., Ltd., priority 2005, dated 2010)
# Values joined by “and” are separate entries in the source; they are usually repeats but may differ in a detail not shown here. Identical values can stand only once.
# What was measured:
# Type in all cases: in vivo
# [1] = system: rat cornea alkali burn models; assay: Rat cornea alkali burn model: recovery of corneal epithelium by image analysis
# Description: The corneas of 30 adult rats were burned with 1N NaOH to obtain rat corneal lesion models.
# After 4 days, eyeballs were exenterated, fixed with 10% formaldehyde, embedded with paraffin and continuously sectioned along pupil optic nerve plane, the obtained sections were used for collection and analysis of recovery of corneal epithelium by image analysis system.
# [2] = system: rat epidermis lesion models; assay: Rat epidermis lesion model: wound length by computer image analysis (smearing on epidermis)
# Description: 30 adult rats were cut on their epidermis to obtain rat epidermis lesion model.
# (§1) Rats were administrated with xylazine 5 mg/kg by intramuscular injection; anesthetized with ketamine 50 mg/kg, and rat posterior skin was disinfected with iodine tincture and alcohol; after completely dry, a sterile operation towel was put on, the operative site was exposed, and the operation was conducted under complete aseptic condition. The rat posterior skin was incised to form 3 cm incision.
# [3] = system: rat left anterior descending branch coronary artery reperfusion models (acute myocardial infarction); assay: Rat heart ischemia model: degree of heart ventricle fibrosis by histological pictures (Masson's trichrome); settings: 56th day after administration; 10 μg/rat/day intraperitoneal injection
# Description: (§2) Rats were administrated with xylazine 5 mg/kg by intramuscular injection; anesthetized with ketamine 50 mg/kg, and rat anterior chest wall was disinfected with iodine tincture and alcohol; after completely dry, a sterile operation towel was put on, the operative site was exposed, and the operation was conducted under complete aseptic condition. The skin of rat anterior chest wall was incised, and the 3rd to the 6th ribs were cut to expose thoracic cavity, the lung was pushed aside, the heart vesicle was opened to expose the heart. Blood vessel from the origin of left anterior descending branch coronary artery to 3 mm was ligated with 6-0 polypropylene ligature wire and NELATION, and the reperfusion was conducted 1 hour later. After non-hemorrhage was confirmed, the excised ribs were sutured with sternum, and then skin was sutured. After operation, the rats were administrated with 3 mg/kg/day gentamicin for 3 days by intramuscular injection for prevention of infection.
# [4] = system: rat epidermis lesion models; assay: Rat epidermis lesion model: wound healing observation after topical administration by nebulizer
# Description: as §1
# [5] = system: rabbit cornea alkali burn models; assay: Rabbit cornea alkali burn model: recovery of corneal epithelium; settings: 5th day; 500 μg/ml eyedrops, 4 times per day
# Description: Eyeballs were exenterated separately after 1 and 5 days, fixed with 10% formaldehyde, embedded with paraffin, and continuously sectioned along pupil optic nerve plane, the obtained sections were stained and used for collection and analysis of recovery of corneal epithelium by image analysis system.
# [6] = system: rat models with left anterior descending branch coronary artery ligation and reperfusion; assay: Rat coronary artery ligation and reperfusion model: cell death and heart function (summary); settings: continuous injection for one month
# Description: 60 adult rats were subjected to coronary artery deligation to imitate the onset of heart disease and to obtain rat models with left anterior descending branch coronary artery ligation and reperfusion.
# as §2
# [7] = system: rat left anterior descending branch coronary artery reperfusion models (acute myocardial infarction); assay: Rat heart ischemia model: thickness of anterior left ventricular wall by ultrasonic cardiogram; settings: for thickness of anterior left ventricular wall: 10 μg/rat/day intraperitoneal injection
# Description: as §2
# 3. Comparison of Degree of Heart Ventricle Fibrosis by Using Histological Pictures
# [8] = 100 μg/ml, topical by nebulizer, 4 times per day
substance,measurement,setting,value
"Tβ4: Native thymosin β4, polypeptide with 43 amino acids as shown in SEQ ID NO:1; positive control (SDKPDMAEIEKFDKSKLKKTETQEKNPLPSKETIEQEKQAGES; listed as Homo sapiens)","recovery of corneal epithelium (image analysis), basal value","[1]; 0th day, before administration, 1N caustic soda burn",4.76±0.18
same,recovery of corneal epithelium (image analysis),"[1]; 4th day after administration, eyedrops 30 μl/rat, 4 times per day",7.03±0.13
same,recovery of injured corneas,"[1]; dropped in eyes for 4 days, corneas burned with 1N NaOH",recovered completely
same,"wound length, basal value","[2]; 0th day, before administration, 3 cm incision of posterior skin",3.07±0.18
same,wound length,"[2]; 5th day, smeared on epidermis 4 times per day, 5 μg/day",1.62±0.13
same,length of wounds smaller than the blank control,"[2]; smeared for 5 days, 30 adult rats",50%
same,ratio of fibrosis part of myocardium based on total myocardium of left ventricle,[3],23.15±2.9% and 22.91±2.3%
same,wound healing time,[4]; [8],5.8 ± 0.91 days
same,wound inflammatory reaction (severity),[4]; [8],relatively slight inflammatory reactions
same,"wound inflammatory reaction, time persisted",[4]; [8],1 to 2 days
same,scar appearance,"[4]; two weeks after administration, 100 μg/ml by nebulizer",relatively fine linear scars with relatively smooth surface
same,scar size,"[4]; two weeks after administration, 100 μg/ml by nebulizer, 4 times per day",1.9±0.23 cm
same,layers of epithelial cells appeared,[5],1-2 layers
same,recovery condition of corneal epithelium,[5],all injured corneal epithelial cells were recovered and became normal
same,cell death in the injured rat heart,[6],Limited cells died
same,heart functions,[6]; several weeks after the onset of heart disease,heart functions were improved
same,"thickness of anterior left ventricular wall, basal value","[7]; 0th day, before administration, rat heart ischemia model",0.2378±0.018
same,thickness of anterior left ventricular wall,[7]; 14th day after administration,0.1919±0.012 and 0.1215±0.013
same,thickness of anterior left ventricular wall,[7]; 28th day after administration,0.1233±0.0071
same,thickness of anterior left ventricular wall,[7]; 56th day after administration,0.1232±0.0057
